Bounds are passed on as bounds.

T1 sequence (P41279 30-398): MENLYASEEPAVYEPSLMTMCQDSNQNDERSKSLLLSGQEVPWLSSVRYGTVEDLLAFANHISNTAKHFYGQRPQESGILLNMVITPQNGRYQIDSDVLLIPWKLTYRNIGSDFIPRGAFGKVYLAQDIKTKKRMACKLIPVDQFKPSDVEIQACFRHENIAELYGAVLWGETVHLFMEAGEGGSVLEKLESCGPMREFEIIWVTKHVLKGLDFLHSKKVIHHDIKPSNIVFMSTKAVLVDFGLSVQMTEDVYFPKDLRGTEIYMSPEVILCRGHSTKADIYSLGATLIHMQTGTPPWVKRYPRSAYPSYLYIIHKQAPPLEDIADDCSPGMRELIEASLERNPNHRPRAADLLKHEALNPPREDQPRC
Tpl2, sequence (P41279 whole entry): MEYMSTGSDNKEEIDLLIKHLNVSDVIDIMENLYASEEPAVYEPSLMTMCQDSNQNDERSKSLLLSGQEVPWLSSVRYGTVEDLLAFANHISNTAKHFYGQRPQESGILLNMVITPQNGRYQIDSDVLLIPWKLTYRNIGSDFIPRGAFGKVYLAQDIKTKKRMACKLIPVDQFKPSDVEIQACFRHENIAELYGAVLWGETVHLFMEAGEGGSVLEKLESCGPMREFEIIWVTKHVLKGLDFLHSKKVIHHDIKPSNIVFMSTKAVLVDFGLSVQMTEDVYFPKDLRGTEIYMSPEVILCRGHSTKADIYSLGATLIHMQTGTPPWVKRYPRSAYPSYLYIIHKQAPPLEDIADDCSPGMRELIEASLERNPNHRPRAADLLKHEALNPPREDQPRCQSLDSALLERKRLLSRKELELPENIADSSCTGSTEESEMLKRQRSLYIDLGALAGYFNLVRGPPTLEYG

One experiment addresses Tpl2 (Homo sapiens, UniProt P41279).
Assay: not given
The settings on record: background statement; cited from earlier work.
Regarding `CN[C@@H]1C[C@H]2O[C@@](C)([C@@H]1OC)n1c3ccccc3c3c4c(c5c6ccccc6n2c5c31)C(=O)NC4` [staurosporine], the “inhibition of Tpl2” value was “not inhibited”.

A further experiment has as its target T1, human Cot/Tpl2 kinase (Homo sapiens, UniProt P41279).
T1 construct: human Cot/Tpl2 kinase construct encoding residues 30-398; 6His (N); made in house; host or cells: Sf9 insect cells, baculovirus system (BD Biosciences)
The experiment in a line: Tpl2/Cot kinase assay: GST-MEK1 phosphorylation detected by ELISA (DELFIA Eu). It is filed as biochemical. The settings on record: 0.4 nM Tpl2, 35 nM GST-MEK1, 50 uM ATP, 1 h at 30° C. The method, boiled down:
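His-tagged human Tpl2 from Sf9 cells, Ni-affinity and size-exclusion purified (monomer). 0.4 nM Tpl2 with 35 nM GST-MEK1, 50 uM ATP, MOPS pH 7.2, 1% DMSO, 1 h at 30° C; EDTA stop. MEK1 Ser217/221 phosphorylation detected by anti-phospho-MEK1 and Eu-labelled secondary ELISA; IC50 fitted.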
Background: ELISA stands for enzyme-linked immunosorbent assay.
Take `N#Cc1cnc2c(Br)cc(NCc3cnc[nH]3)cc2c1NC1CCCCCC1` [Example 97, 6-((1H-imidazol-5-yl)methylamino)-8-bromo-4-(cycloheptylamino)quinoline-3-carbonitrile]: 0.23 µM corresponded to half-maximal inhibition (IC50). The same measure, in the same setting: with `N#Cc1cnc2c(C(F)(F)F)cc(NCc3cnc(N4CCOCC4)s3)cc2c1Nc1ccc(F)c(Cl)c1` [Example 244, 4-[(3-chloro-4-fluorophenyl)amino]-6-{[(2-morpholin-4-yl-1,3-thiazol-5-yl)methyl]amino}-8-(trifluoromethyl)quinoline-3-carbonitrile] the figure was > 40 µM; with `N#Cc1cnc2c(Br)cc(NCc3nn[nH]c3-c3ccc(F)cc3)cc2c1Nc1ccc(F)c(Cl)c1` [Example 170, 8-bromo-4-[(3-chloro-4-fluorophenyl)amino]-6-({[5-(4-fluorophenyl)-1H-1,2,3-triazol-4-yl]methyl}amino)quinoline-3-carbonitrile], 0.68 µM; with `CN1CCC[C@H]1CCn1cc(CNc2cc(Br)c3ncc(C#N)c(Nc4ccc(F)c(Cl)c4)c3c2)nn1` [Example 324, (S)-8-bromo-4-(3-chloro-4-fluorophenylamino)-6-((1-(2-(1-methylpyrrolidin-2-yl)ethyl)-1H-1,2,3-triazol-4-yl)methylamino)quinoline-3-carbonitrile], 0.05 µM. Still for that read-out and setting: with `N#Cc1cnc2c(C(F)(F)F)cc(NCc3ccccc3F)cc2c1Nc1ccc(F)c(Cl)c1` [Example 235, 4-[(3-chloro-4-fluorophenyl)amino]-6-[(2-fluorobenzyl)amino]-8-(trifluoromethyl)quinoline-3-carbonitrile] the figure was > 40 µM; with `N#Cc1cnc2ccc(NCc3cccc(O)c3)cc2c1Nc1ccc(F)c(Cl)c1` [Example 53, 4-(3-Chloro-4-fluoro-phenylamino)-6-(3-hydroxy-benzylamino)-quinoline-3-carbonitrile], 0.54 µM; with `CN(C)CCSc1cc2ncc(C#N)c(Nc3ccc(F)c(Cl)c3)c2cc1NCc1cnc[nH]1` [Example 163, 6-((1H-imidazol-5-yl)methylamino)-4-(3-chloro-4-fluorophenylamino)-7-(2-(dimethylamino)ethylthio)quinoline-3-carbonitrile], 0.15 µM. Take `Cc1cc(CNc2cc(C(=O)N(C)C)c3ncc(C#N)c(Nc4ccc(F)c(Cl)c4)c3c2)n(C)n1` [Example 90, 4-(3-chloro-4-fluorophenylamino)-3-cyano-6-((1,3-dimethyl-1-H-pyrazol-5-yl)methylamino)-N, N-dimethylquinoline-8-carboxamide]: the IC50 – broadly, the concentration that gives 50% inhibition – is 1.7 µM.

`N#Cc1cnc2c(Cl)cc(NCc3cn(C4CCC5(CC4)OCCO5)nn3)cc2c1Nc1ccc(F)c(Cl)c1` [Example 332, 8-chloro-4-[(3-chloro-4-fluorophenyl)amino]-6-({[1-(1,4-dioxaspiro[4.5]dec-8-yl)-1H-1,2,3-triazol-4-yl]methyl}amino)quinoline-3-carbonitrile] yielded an IC50 of 0.039 µM. On the same count and under the same terms, with `CCOC(=O)/C=C/c1cc(NCc2cnc[nH]2)cc2c(Nc3ccc(F)c(Cl)c3)c(C#N)cnc12` [Example 312, Ethyl(2E)-3-{4-[(3-chloro-4-fluorophenyl)amino]-3-cyano-6-[(1H-imidazol-5-ylmethyl)amino]quinolin-8-yl}acrylate] the figure was 9.7 µM; with `N#Cc1cnc2c(Cl)cc(NCc3cncnc3)cc2c1Nc1ccc(F)c(Cl)c1` [Example 272, 8-Chloro-4-(3-chloro-4-fluoro-phenylamino)-6-[(pyrimidin-5-ylmethyl)-amino]-quinoline-3-carbonitrile], 0.047 µM. `Cc1cc(N)cc2c(Nc3cccc(Br)c3)c(C#N)cnc12` [Example 125, 6-amino-4-(3-bromophenylamino)-8-methylquinoline-3-carbonitrile] returned an IC50 of 11 µM.

In the case of `Cc1cc(CNc2ccc3ncc(C#N)c(Nc4ccc(F)c(Cl)c4)c3c2)n(C)n1` [Example 33, 4-(3-Chloro-4-fluoro-phenylamino)-6-[(2,5-dimethyl-2H-pyrazol-3-ylmethyl)-amino]-quinoline-3-carbonitrile], the IC50 is 0.2 µM. Still for that read-out and setting: with `Cc1[nH]cnc1CNc1ccc2ncc(C#N)c(Nc3ccc(F)c(Cl)c3)c2c1` [Example 15, 4-(3-Chloro-4-fluoro-phenylamino)-6-[(5-methyl-3H-imidazol-4-ylmethyl)-amino]-quinoline-3-carbonitrile] the figure was 0.015 µM; with `COc1ncccc1CNc1ccc2ncc(C#N)c(Nc3ccc(F)c(Cl)c3)c2c1` [Example 51, 4-(3-Chloro-4-fluoro-phenylamino)-6-[(2-methoxy-pyridin-3-ylmethyl)-amino]-quinoline-3-carbonitrile], 0.11 µM; with `N#Cc1cnc2ccc(NCc3c[nH]nc3-c3cccs3)cc2c1Nc1ccc(F)c(Cl)c1` [Example 35, 4-(3-Chloro-4-fluoro-phenylamino)-6-[(3-thiophen-2-yl-1H-pyrazol-4-ylmethyl)-amino]-quinoline-3-carbonitrile], 1.8 µM.

Staying with this experiment, now noted: Table 2; Tpl2/Cot kinase, GST-MEK1 substrate, 50 uM ATP.
For `COCCn1cc(CNc2cc(Br)c3ncc(C#N)c(Nc4ccc(F)c(Cl)c4)c3c2)nn1` [Example 522], the concentration for half-maximal inhibition (IC50) was determined as 0.018 µM. In the case of `Fc1ccc(Nc2ncncc2-c2ccccc2NCc2cnc[nH]2)cc1Cl` [Example 536], the IC50 was > 3 µM.

For `Cn1nnnc1CCNc1cc(Cl)c2ncc(C#N)c(Nc3ccc(F)c(Cl)c3)c2c1` [Example 469], the IC50 turned out to be 0.17 µM. Still for that read-out and setting: with `CC(C)(C)Nc1c(C#N)cnc2ccc(NCc3cccc[n+]3[O-])cc12` [Example 406] the figure was 5.4 µM; with `N#Cc1cnc2ccc(NCc3ccccn3)cc2c1NC1CCCCC1` [Example 360], 0.21 µM; with `C=CCn1cc(CNc2cc(Br)c3ncc(C#N)c(Nc4ccc(F)c(Cl)c4)c3c2)nn1` [Example 561], 0.02 µM. Compound `Cn1cnc(CNc2cc(Br)c3ncc(C#N)c(Nc4ccc(F)c(Cl)c4)c3c2)n1` [Example 486] had an IC50 of 0.2 µM. Against the preceding compound, the IC50 is about 10-fold higher. For `CN1CCC(CCn2cc(CNc3cc(Cl)c4ncc(C#N)c(Nc5ccc(F)c(Cl)c5)c4c3)nn2)CC1` [Example 521], half-maximal inhibition (IC50) was put at 0.038 µM. This IC50 lies about 5.3-fold lower than the previous one. Same read-out and setting: with `CC(C)(C)CN1CCC(n2cc(CNc3cc(Br)c4ncc(C#N)c(Nc5ccc(F)c(Cl)c5)c4c3)nn2)CC1` [Example 542] the figure was 0.19 µM. On to `CC(C)n1cnc(CNc2cc(Br)c3ncc(C#N)c(Nc4ccc(F)c(Cl)c4)c3c2)c1` [Example 633], for which the IC50 was > 3 µM.

Still in this experiment, the particulars now being: Tpl2/Cot kinase, GST-MEK1 substrate, 50 uM ATP.
`COCCCc1nc[nH]c1CNc1cc(Br)c2ncc(C#N)c(Nc3ccc(F)c(Cl)c3)c2c1` [Example 683] had an IC50 of 0.062 µM. The same measure, in the same setting: with `N#Cc1cnc2c(Cl)cc(NCc3cn(-c4cc[n+]([O-])cc4)nn3)cc2c1Nc1ccc(F)c(Cl)c1` [Example 749] the figure was 0.016 µM; with `CC(=O)N1CCC(n2cc(CNc3cc(Br)c4ncc(C#N)c(Nc5ccc(F)c(Cl)c5)c4c3)nn2)CC1` [Example 720], 0.0061 µM. On the same count and under the same terms, with `N#Cc1cnc2c(Cl)cc(NCc3cn(CCCN4CCC(F)(F)CC4)nn3)cc2c1Nc1ccc(F)c(Cl)c1` [Example 841] the figure was 0.029 µM; with `CN1CCCC1CCNC(=O)CNc1cc(Cl)c2ncc(C#N)c(Nc3ccc(F)c(Cl)c3)c2c1` (stereo not drawn) [Example 781], > 3 µM.

Still in this experiment, the particulars now being: Tpl2/Cot kinase, GST-MEK1 substrate, 50 uM ATP, 1 h at 30° C.; Table 2.
`N#Cc1cnc2c(Cl)cc(OCc3cn(C4CCNCC4)nn3)cc2c1Nc1ccc(F)c(Cl)c1` [Example 940] gave an IC50 of 0.15 µM. This lies in the sub-micromolar range.

Compound `CC(C)N1CCC(c2cncc(CNc3cc(Cl)c4ncc(C#N)c(Nc5ccc(F)c(Cl)c5)c4c3)c2)CC1` [Example 1061] registered an IC50 of 0.6 µM. The same measure, in the same setting: with `CC(C)(C)OC(=O)N1CCC(n2cc(CNc3cc(Cl)c4ncc(C#N)c(NC5CCCCCC5)c4c3)nn2)CC1` [Example 948] the figure was 2.31 µM; with `CN(C)CC#Cc1csc(CNc2cc(Cl)c3ncc(C#N)c(Nc4ccc(F)c(Cl)c4)c3c2)c1` [Example 1023], 1.16 µM. On the same count and under the same terms, with `CC(C)(C)OC(=O)N1CCC(n2cc(CNc3cc(Cl)c4ncc(C#N)c(NC5CCCC6(CCCC6)C5)c4c3)nn2)CC1` (stereo not drawn) [Example 974] the figure was > 3 µM. Same read-out and setting: with `CC(C)CN1C2CCC1CC(n1cc(CNc3cc(Cl)c4ncc(C#N)c(Nc5ccc(F)c(Cl)c5)c4c3)nn1)C2` (stereo not drawn) [Example 1058] the figure was 0.07 µM. Turning to `N#Cc1cnc2c(Cl)cc(NCc3cn(CCN4CCCCC4)nn3)cc2c1NCC(F)(F)F` [Example 985], half-maximal inhibition (IC50) was put at 1.41 µM.

These data come from patent US20060264460A1 (Wyeth, priority 2005, published 2006).
